The values below come from patent publication US20190322676A1, “CERAMIDE GALACTOSYLTRANSFERASE INHIBITORS FOR THE TREATMENT OF DISEASE” (BioMarin Pharmaceutical Inc., priority 2016, published 2019).

pIC50: −log10 of the molar value.

This assay addresses T1, human CGT (ceramide galactosyltransferase), CHO/CGT lysate (Homo sapiens, UniProt Q16880).
T1 construct: Full-length human CGT cDNA was cloned into the BamH1/Xho1 site of pcDNA3.1 (+); expressed in transfected cells; host or cells: Chinese hamster ovary (CHO) cells; lysate prepared with M-PER
T1 sequence (Q16880 21-541): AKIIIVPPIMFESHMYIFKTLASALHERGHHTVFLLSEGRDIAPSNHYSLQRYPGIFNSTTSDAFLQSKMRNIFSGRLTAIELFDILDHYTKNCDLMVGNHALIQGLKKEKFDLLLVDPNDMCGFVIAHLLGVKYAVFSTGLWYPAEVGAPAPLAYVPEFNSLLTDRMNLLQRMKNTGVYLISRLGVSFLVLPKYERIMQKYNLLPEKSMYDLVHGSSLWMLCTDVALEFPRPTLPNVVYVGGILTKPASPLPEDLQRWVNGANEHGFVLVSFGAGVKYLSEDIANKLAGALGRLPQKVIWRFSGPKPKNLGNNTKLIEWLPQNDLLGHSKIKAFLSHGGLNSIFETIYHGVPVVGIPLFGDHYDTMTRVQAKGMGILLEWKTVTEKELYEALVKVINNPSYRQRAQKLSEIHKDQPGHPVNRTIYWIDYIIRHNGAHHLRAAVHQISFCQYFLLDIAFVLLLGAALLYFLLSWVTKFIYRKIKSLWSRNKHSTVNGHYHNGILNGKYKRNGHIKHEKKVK
Nature of the assay: CGT enzyme assay, RapidFire/MS/MS readout (Table 1 ranges with one asterisk *). Particulars: RapidFire method (range with one asterisk *). Type of assay: biochemical. In outline: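 IC50s come from variable-slope dose-response fits of internal-standard-normalized C6-NBD-dihydro-galactosylceramide, measured by RapidFire/MS/MS (ESI negative). Reactions: 1 h, 37 °C, human CGT-expressing CHO lysate (4 μg), 0.001–50 μM compound, 10 μM NBD-dihydro-ceramide, 17.5 μM UDP-galactose, 0.5% DMSO, pH 7.2; 0.01% Tween 80 added for ** values.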

Molecule `CCOc1ccc(C(F)(F)[C@H](C(=O)N2C3CCC2CC(N)C3)N(C)S(=O)(=O)c2ccc3cc(OC4CCCC4)ccc3c2)cc1` (stereo partly drawn) [Compound 114-2, N-((2S)-3-(3-amino-8-azabicyclo[3.2.1]octan-8-yl)-1-(4-ethoxyphenyl)-1,1-difluoro-3-oxopropan-2-yl)-6-(cyclopentyloxy)-N-methylnaphthalene-2-sulfonamide] gave a pIC50 of 4.52 to 5.00. The figure for `CN([C@H](C(=O)N1C2CCC1CC(N)C2)C(F)(F)c1ccc(OCCN2CCOCC2)cc1)S(=O)(=O)c1ccc2cc(OC3CCCC3)ccc2c1` (stereo partly drawn) [Compound 115-1, N-((2R)-3-(3-amino-8-azabicyclo[3.2.1]octan-8-yl)-1,1-difluoro-1-(4-(2-morpholinoethoxy)phenyl)-3-oxopropan-2-yl)-6-(cyclopentyloxy)-N-methylnaphthalene-2-sulfonamide] is 5.00 to 6.00; for `CN([C@@H](C(=O)N1C2CCC1CC(N)C2)C(F)(F)c1ccc(OCCN2CCOCC2)cc1)S(=O)(=O)c1ccc2cc(OC3CCCC3)ccc2c1` (stereo partly drawn) [Compound 115-2, N-((2S)-3-(3-amino-8-azabicyclo[3.2.1]octan-8-yl)-1,1-difluoro-1-(4-(2-morpholinoethoxy)phenyl)-3-oxopropan-2-yl)-6-(cyclopentyloxy)-N-methylnaphthalene-2-sulfonamide] it is 4.52 to 5.00; for `CN([C@H](C(=O)N1C2CCC1CC(N)C2)C(F)(F)c1ccc(OCCN2CCCCC2)cc1)S(=O)(=O)c1ccc2cc(OC3CCCC3)ccc2c1` (stereo partly drawn) [Compound 116-1, N-((2R)-3-(3-amino-8-azabicyclo[3.2.1]octan-8-yl)-1,1-difluoro-3-oxo-1-(4-(2-(piperidin-1-yl)ethoxy)phenyl)propan-2-yl)-6-(cyclopentyloxy)-N-methylnaphthalene-2-sulfonamide] it is 4.00 to 4.52. `CN([C@@H](C(=O)N1C2CCC1CC(N)C2)C(F)(F)c1ccc(OCCN2CCCCC2)cc1)S(=O)(=O)c1ccc2cc(OC3CCCC3)ccc2c1` (stereo partly drawn) [Compound 116-2, N-((2S)-3-(3-amino-8-azabicyclo[3.2.1]octan-8-yl)-1,1-difluoro-3-oxo-1-(4-(2-(piperidin-1-yl)ethoxy)phenyl)propan-2-yl)-6-(cyclopentyloxy)-N-methylnaphthalene-2-sulfonamide] showed a negative-log IC50 (pIC50) of 4.00 to 4.52. For `NC1CCN(C(=O)[C@@H](NS(=O)(=O)c2ccc(OCC3CCCCC3)cc2)C(F)(F)c2ccc(-c3ccc(Cl)s3)cc2)CC1` [Compound 117-1, (R)—N-(3-(4-aminopiperidin-1-yl)-1-(4-(5-chlorothiophen-2-yl)phenyl)-1,1-difluoro-3-oxopropan-2-yl)-4-(cyclohexylmethoxy)benzenesulfonamide], the pIC50 is 5.00 to 6.00. The figure for `NC1CCN(C(=O)[C@H](NS(=O)(=O)c2ccc(OCC3CCCCC3)cc2)C(F)(F)c2ccc(-c3ccc(Cl)s3)cc2)CC1` [Compound 117-2, (S)—N-(3-(4-aminopiperidin-1-yl)-1-(4-(5-chlorothiophen-2-yl)phenyl)-1,1-difluoro-3-oxopropan-2-yl)-4-(cyclohexylmethoxy) benzenesulfonamide] is 4.52 to 5.00. On to `CCCCOc1cc(C(F)(F)[C@H](NS(=O)(=O)c2ccc3cc(OC4CCCC4)ccc3c2)C(=O)N2C3CCC2CC(N)C3)ccc1Cl` (stereo partly drawn) [Compound 118-1, N-((2R)-3-(3-amino-8-azabicyclo[3.2.1]octan-8-yl)-1-(3-butoxy-4-chlorophenyl)-1,1-difluoro-3-oxopropan-2-yl)-6-(cyclopentyloxy)naphthalene-2-sulfonamide], for which the pIC50 was greater than 6.00. Then `CCCCOc1cc(C(F)(F)[C@@H](NS(=O)(=O)c2ccc3cc(OC4CCCC4)ccc3c2)C(=O)N2C3CCC2CC(N)C3)ccc1Cl` (stereo partly drawn) [Compound 118-2, N-((2S)-3-(3-amino-8-azabicyclo[3.2.1]octan-8-yl)-1-(3-butoxy-4-chlorophenyl)-1,1-difluoro-3-oxopropan-2-yl)-6-(cyclopentyloxy) naphthalene-2-sulfonamide], with 5.00 to 6.00; and `CCCCOc1cc(C(F)(F)[C@H](NS(=O)(=O)c2ccc(OCC3CCCCC3)cc2)C(=O)N2C3CCC2CC(N)C3)ccc1Cl` (stereo partly drawn) [Compound 120-1, N-((2R)-3-(3-amino-8-azabicyclo[3.2.1]octan-8-yl)-1-(3-butoxy-4-chlorophenyl)-1,1-difluoro-3-oxopropan-2-yl)-4-(cyclohexylmethoxy) benzenesulfonamide], with greater than 6.00.

In the case of `CCCCOc1cc(C(F)(F)[C@@H](NS(=O)(=O)c2ccc(OCC3CCCCC3)cc2)C(=O)N2C3CCC2CC(N)C3)ccc1Cl` (stereo partly drawn) [Compound 120-2, N-((2S)-3-(3-amino-8-azabicyclo[3.2.1]octan-8-yl)-1-(3-butoxy-4-chlorophenyl)-1,1-difluoro-3-oxopropan-2-yl)-4-(cyclohexylmethoxy)benzenesulfonamide], the pIC50 is 5.00 to 6.00. Then `NC1CC2CCC(C1)N2C(=O)[C@@H](NS(=O)(=O)c1ccc2cc(OC3CCCC3)ccc2c1)C(F)(F)c1ccc(Oc2ccc(Cl)cc2)cc1` (stereo partly drawn) [Compound 121-1, N-((2R)-3-(3-amino-8-azabicyclo[3.2.1]octan-8-yl)-1-(4-(4-chlorophenoxy)phenyl)-1,1-difluoro-3-oxopropan-2-yl)-6-(cyclopentyloxy) naphthalene-2-sulfonamide], with greater than 6.00; and `NC1CC2CCC(C1)N2C(=O)[C@H](NS(=O)(=O)c1ccc2cc(OC3CCCC3)ccc2c1)C(F)(F)c1ccc(Oc2ccc(Cl)cc2)cc1` (stereo partly drawn) [Compound 121-2, N-((2S)-3-(3-amino-8-azabicyclo[3.2.1]octan-8-yl)-1-(4-(4-chlorophenoxy)phenyl)-1,1-difluoro-3-oxopropan-2-yl)-6-(cyclopentyloxy)naphthalene-2-sulfonamide], with 5.00 to 6.00.

The molecule `N[C@@H]1CCCN(C(=O)[C@@H](NS(=O)(=O)c2ccc3cc(OC4CCCC4)ccc3c2)C(F)(F)c2ccc(Br)cc2)C1` [Compound 122-1, N—((R)-3-((R)-3-aminopiperidin-1-yl)-1-(4-bromophenyl)-1,1-difluoro-3-oxopropan-2-yl)-6-(cyclopentyloxy)naphthalene-2-sulfonamide] showed a pIC50 of 5.00 to 6.00. `N[C@@H]1CCCN(C(=O)[C@H](NS(=O)(=O)c2ccc3cc(OC4CCCC4)ccc3c2)C(F)(F)c2ccc(Br)cc2)C1` [Compound 122-2, N—((S)-3-((R)-3-aminopiperidin-1-yl)-1-(4-bromophenyl)-1,1-difluoro-3-oxopropan-2-yl)-6-(cyclopentyloxy)naphthalene-2-sulfonamide] gave a pIC50 of 4.00 to 4.52. In turn, `COc1cc(C(F)(F)[C@H](NS(=O)(=O)c2ccc3cc(OC4CCCC4)ccc3c2)C(=O)N2CCC(N)CC2)ccc1Cl` [Compound 123-1, (R)—N-(3-(4-aminopiperidin-1-yl)-1-(4-chloro-3-methoxyphenyl)-1,1-difluoro-3-oxopropan-2-yl)-6-(cyclopentyloxy)naphthalene-2-sulfonamide] had a pIC50 greater than 6.00. Turning to `COc1cc(C(F)(F)[C@@H](NS(=O)(=O)c2ccc3cc(OC4CCCC4)ccc3c2)C(=O)N2CCC(N)CC2)ccc1Cl` [Compound 123-2, (S)—N-(3-(4-aminopiperidin-1-yl)-1-(4-chloro-3-methoxyphenyl)-1,1-difluoro-3-oxopropan-2-yl)-6-(cyclopentyloxy)naphthalene-2-sulfonamide], the negative logarithm of the IC50 (pIC50) is 5.00 to 6.00. The molecule `COc1cc(C(F)(F)[C@H](NS(=O)(=O)c2ccc3cc(OC4CCCC4)ccc3c2)C(=O)N2C3CCC2CC(N)C3)ccc1Cl` (stereo partly drawn) [Compound 124-1, N-((2R)-3-(3-amino-8-azabicyclo[3.2.1]octan-8-yl)-1-(4-chloro-3-methoxyphenyl)-1,1-difluoro-3-oxopropan-2-yl)-6-(cyclopentyloxy)naphthalene-2-sulfonamide] showed a pIC50 greater than 6.00. With `COc1cc(C(F)(F)[C@H](NS(=O)(=O)c2ccc(OCC3CCCCC3)cc2)C(=O)N2C3CCC2CC(N)C3)ccc1Cl` (stereo partly drawn) [Compound 125-1, N-((2R)-3-(3-amino-8-azabicyclo[3.2.1]octan-8-yl)-1-(4-chloro-3-methoxyphenyl)-1,1-difluoro-3-oxopropan-2-yl)-4-(cyclohexylmethoxy) benzenesulfonamide], the negative logarithm of the IC50 (pIC50) was greater than 6.00.

`COc1cc(C(F)(F)[C@@H](NS(=O)(=O)c2ccc(OCC3CCCCC3)cc2)C(=O)N2C3CCC2CC(N)C3)ccc1Cl` (stereo partly drawn) [Compound 125-2, N-((2S)-3-(3-amino-8-azabicyclo[3.2.1]octan-8-yl)-1-(4-chloro-3-methoxyphenyl)-1,1-difluoro-3-oxopropan-2-yl)-4-(cyclohexylmethoxy)benzenesulfonamide] showed a pIC50 of 4.52 to 5.00. For the molecule `CCCCOc1cc(C(F)(F)[C@H](NS(=O)(=O)c2ccc3cc(OC4CCCC4)ccc3c2)C(=O)N2CCC(N)CC2)ccc1Cl` [Compound 126-1, (R)—N-(3-(4-aminopiperidin-1-yl)-1-(3-butoxy-4-chlorophenyl)-1,1-difluoro-3-oxopropan-2-yl)-6-(cyclopentyloxy)naphthalene-2-sulfonamide], the pIC50 is greater than 6.00.

Broadly, the pIC50 is the IC50 on a negative log10 scale, so that one unit is a factor of ten. A lower pIC50 goes with a high IC50.
